Assays:
Pneumocystis carinii = assay: Activity against Pneumocystis carinii: treatment of latent infection in dexamethasone-treated rats; type: in vivo; conditions: weeks 5-7; for SCORE 2 (number of rats): 2+: focal areas of pneumonitis surrounded by 10 to 25 h.p.f. of normal lung; for SCORE 3 (number of rats): 3+: lung diffusely and extensively involved; for SCORE 4 (number of rats): score 4 not defined; for SCORE 0 (number of rats): score none: no organism seen; for SCORE 1 (number of rats): 1+: cysts sparsely distributed, less than one per 25 h.p.f.
Experimental: Groups of 10 rats were treated with dexamethasone to allow latent Pneumocystis carinii infection to develop. Tetracycline was also administered to protect against bacterial infections. […] In parallel with each test compound, Celacol was administered to one group of rats (also treated with dexamethasone and tetracycline) as a control. At the end of the test period the animals were sacrificed and autopsies carried out. The lungs were removed and the right lung bisected. An imprint was made onto microscope slides and stained with toluidine blue. One half of the lung was placed in formalin, processed in paraffin blocks, sectioned and stained by the Gomori methanamine silver nitrate method. After autopsy the extent of P. carinii pneumonitis was scored under coded study as none if no organism seen; 1+ if P. carinii cysts seen sparsely distributed with less than one per 25 high power field (h.p.f.); 2+ if focal areas of P. carinii pneumonitis surrounded by 10 to 25 h.p.f. of normal lung and 3+ if lung diffusely and extensively involved with organisms in almost all h.p.f.s.

Water-solubility = type: physicochemical; conditions: as compared with the corresponding compound wherein R13 is hydroxy
[1] = system: Pneumocystis carinii pneumonia; conditions: AIDS patients; Wofsy, Antimicrobial Agents Annual 1986; cited from earlier work
[2] = human, in vivo; cited from earlier work

| Molecule | % INFECTED (Pneumocystis carinii; 25 mg/kg/day oral) | NO. INFECTED/NO. EXAMINED (Pneumocystis carinii; 25 mg/kg/day oral) | SCORE 2 (number of rats) (Pneumocystis carinii; 25 mg/kg/day oral) | SCORE 3 (number of rats) (Pneumocystis carinii; 25 mg/kg/day oral) | SCORE 4 (number of rats) (Pneumocystis carinii; 25 mg/kg/day oral) | SCORE 0 (number of rats) (Pneumocystis carinii; 25 mg/kg/day oral) | % INFECTED (Pneumocystis carinii; 50 mg/kg/day oral) | NO. INFECTED/NO. EXAMINED (Pneumocystis carinii; 50 mg/kg/day oral) | SCORE 1 (number of rats) (Pneumocystis carinii; 50 mg/kg/day oral) | SCORE 2 (number of rats) (Pneumocystis carinii; 50 mg/kg/day oral) | SCORE 3 (number of rats) (Pneumocystis carinii; 50 mg/kg/day oral) | SCORE 4 (number of rats) (Pneumocystis carinii; 50 mg/kg/day oral) | SCORE 0 (number of rats) (Pneumocystis carinii; 50 mg/kg/day oral) | % INFECTED (Pneumocystis carinii; 100 mg/kg/day oral) | NO. INFECTED/NO. EXAMINED (Pneumocystis carinii; 100 mg/kg/day oral) | SCORE 1 (number of rats) (Pneumocystis carinii; 100 mg/kg/day oral) | SCORE 2 (number of rats) (Pneumocystis carinii; 100 mg/kg/day oral) | SCORE 3 (number of rats) (Pneumocystis carinii; 100 mg/kg/day oral) | SCORE 4 (number of rats) (Pneumocystis carinii; 100 mg/kg/day oral) | SCORE 0 (number of rats) (Pneumocystis carinii; 100 mg/kg/day oral) | other results |
| --- | --- | --- | --- | --- | --- | --- | --- | --- | --- | --- | --- | --- | --- | --- | --- | --- | --- | --- | --- | --- | --- |
| O=C1C(Cl)=C(C2CCC(c3ccc(Cl)cc3)CC2)C(=O)c2ccccc21 (stereo not shown) [A, 2-[4-(4-chlorophenyl)cyclohexyl]-3-chloro-1,4-naphthoquinone] | 100% | 14/14 | 6 | 3 | 0 | 0 | 100% | 15/15 | 8 | 5 | 2 | 0 | 0 | 73% | 11/15 | 6 | 4 | 1 | 0 | 4 | SCORE 1 (number of rats) (Pneumocystis carinii; oral): 5 |
| CC(C)(C)C1CCC(CC2=C(O)C(=O)c3ccccc3C2=O)CC1 (stereo not shown) [C, 2-(4-t-butylcyclohexylmethyl)-3-hydroxy-1,4-naphthoquinone] | 93% | 13/14 | 2 | 4 | 4 | 1 | 100% | 14/14 | 2 | 6 | 4 | 2 | 0 | 92% | 12/13 | 4 | 2 | 6 | 0 | 1 | SCORE 1 (number of rats) (Pneumocystis carinii; oral): 3 |
| CC(C)(C)C1CCC(C2=C(O)C(=O)c3ccccc3C2=O)CC1 (stereo not shown) [Compound B, 2-(4-t-butylcyclohexyl)-3-hydroxy-1,4-naphthoquinone] | 100% | 15/15 | 7 | 1 | 0 | 0 | 93% | 13/14 | 8 | 4 | 1 | 0 | 1 | 80% | 12/15 | 8 | 3 | 0 | 1 | 3 | SCORE 1 (number of rats) (Pneumocystis carinii; oral): 7 |
| CC(=O)OC1=C([C@H]2CC[C@H](c3ccc(Cl)cc3)CC2)C(=O)c2ccccc2C1=O [Example 5, 2-Acetoxy-3-[trans-4-(4-chlorophenyl)cyclohexyl]-1,4-naphthoquinone] |  |  |  |  |  |  |  |  |  |  |  |  |  |  |  |  |  |  |  |  | water-solubility (Water-solubility): improved water-solubility |
| N=C(N)c1ccc(OCCCCCOc2ccc(C(=N)N)cc2)cc1 [pentamidine] |  |  |  |  |  |  |  |  |  |  |  |  |  |  |  |  |  |  |  |  | % effective [1]: 50-70%; incidence of adverse reactions [2]: around 50% |
| trimethoprim-sulphamethoxazole |  |  |  |  |  |  |  |  |  |  |  |  |  |  |  |  |  |  |  |  | % effective [1]: 50-70% |

— patent publication US5310762A, “Medicaments” (Burroughs Wellcome Co., priority 1988, dated 1994)
